Among the data in PubChem BioAssay (NCI) are TGI and GI50 values, retold here.

Structures are written as SMILES.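 Tested at 5 concentrations; 48 h exposure; 96-well plates; endpoints linearly interpolated, else capped at highest concentration. GI50 is the concentration that inhibits growth by half. Definition used: TGI = concentration required for complete inhibition of growth.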

What all share (test): inhibition of tumour cell growth, NCI panel, 48 h
For test [1], the system named is U251 CNS.
Test [2] has as its system HCC-2998 colon.
Test [3] deals with EKVX NSCLC.
For test [4], the system named is NCI/ADR-RES ovarian.
Test [5] has as its system LOX IMVI melanoma.
For test [6], the system named is PC-3 prostate.
Test [7] has as its system A498 renal.
The test system of test [8] is BT-549 breast.

Regarding `COC(OC)[C@@H]1OC[C@@H](O)[C@@H]1n1cnc2c(N)ncnc21`, the TGI in test [1], in test [2], in test [3], in test [4], in test [5] and in test [6] was greater than 100 µM in each case. Besides, the TGI in test [7] and in test [8] was greater than 100 µM in each case.

`CCCC(CCN)(CCN)[N+](=O)[O-]`: the TGI in test [1], in test [3], in test [4], in test [6], in test [7] and in test [8] was greater than 100 µM each time.

As to `COc1cc2nc(-c3cccs3)[nH]c(=O)c2cc1OC`, the TGI in test [1], in test [3], in test [4], in test [5], in test [6] and in test [7] was greater than 100 µM in each case. Also, in test [8], the TGI was greater than 100 µM.

For the compound `CCOC(=O)Oc1ccc2c(c1)c(=O)c1c(NCCN(CC)CC)ccc3nnn2c31`, the TGI in test [1] came out at 17 µM; in test [2] it was 17.4 µM; in test [3], 19.9 µM; in test [4], 18.9 µM; in test [5], 4.16 µM; in test [6], 15.1 µM. The TGI in test [7] stood at 21.5 µM; in test [8], 23.1 µM.

In the case of `O=C(NNc1nc(-c2ccccc2)cs1)C(F)(F)F`, the TGI in test [1] was 98.7 µM; in test [2], greater than 100 µM; in test [3], greater than 100 µM; in test [4] it was greater than 100 µM; in test [5] it was greater than 100 µM; in test [6], greater than 100 µM. Moreover, in test [7], the TGI was 88.2 µM.

For `COc1ccc2oc(=O)c(-c3csc(C)n3)cc2c1`, the TGI in test [1] was 60.9 µM; in test [2], greater than 100 µM; in test [3], greater than 100 µM; in test [5], greater than 100 µM; in test [6], greater than 100 µM; in test [8], 29.2 µM.

Consider `C[Si](C)(C)C1=C([Si](C)(C)C)C(Cl)(Cl)C1=O`, for which the TGI in test [1] stood at 11.3 µM; in test [2] it was 17.6 µM; in test [3], 16.2 µM; in test [4], 27.1 µM; in test [5], 3.51 µM; in test [6], 12.9 µM. In addition, the figures for the TGI in test [7] and in test [8] were 29.8 µM and 16.1 µM, respectively.

With `C[C@@H]1S[C@H](c2c(Cl)cccc2Cl)N2Cc3ccccc3N=C12`, the TGI in test [1], in test [2], in test [3], in test [5], in test [6] and in test [7] was greater than 100 µM each time. This compound yielded a TGI in test [8] greater than 100 µM.

Turning to `Cc1ccccc1NC(=O)Cc1csc2[n+]1C(=O)/C(=C/c1ccc([N+](=O)[O-])cc1)S2`, the TGI in test [1], in test [2], in test [3], in test [4], in test [5] and in test [6] was greater than 100 µM throughout. The TGI in test [8] amounted to 38.6 µM.

Regarding `CC1(C)CC(=O)C2=C(C1)OC1=C(CC(C)(C)CC1=O)C2c1ccccc1[N+](=O)[O-]` (stereo unspecified), the TGI in test [1], in test [2], in test [3], in test [4], in test [5] and in test [6] was greater than 100 µM throughout. The same compound showed a TGI in test [7] greater than 100 µM.

In the case of `Cc1nc2ccccc2c(/C=C/c2ccc(Cl)cc2)c1C(=O)/C=C/c1ccc(Cl)cc1`, the GI50 in test [1] is 1.39 µM; in test [2], 1.53 µM; in test [4], 2.12 µM; in test [5] it was 1.22 µM. The TGI in test [1] stood at 3.03 µM; in test [2], 3 µM; in test [4], 6.15 µM; in test [5] it was 2.55 µM.

With `C=CCOCn1cc(C)c(=O)[nH]c1=O`, the TGI in test [2], in test [3], in test [5], in test [6], in test [7] and in test [8] was greater than 100 µM each time.

With `O=C(NC(=S)NC(=O)c1cc(O)c(O)c(O)c1)c1cc(O)c(O)c(O)c1`, the TGI in test [1] is 84.9 µM; in test [2], 87.9 µM; in test [4] it was 70.4 µM; in test [5], 60.3 µM; in test [6] it was 39.8 µM; in test [7] it was greater than 100 µM.

With `COc1cc(N(Cc2ccc3oc(=O)c(-c4ccccc4)nc3c2)Cc2ccc3oc(=O)c(-c4ccccc4)nc3c2)cc(OC)c1OC`, the TGI in test [1], in test [2], in test [3], in test [4], in test [5] and in test [6] was greater than 10 µM in each case.

As for `C[C@H](C/C=C/C(C)(C)O)[C@H]1CC[C@@]2(C)[C@@H]3CC[C@H]4C(C)(C)[C@@H](O)CC[C@@]45C[C@@]35CC[C@]12C`, the TGI in test [1] was 53.8 µM; in test [3], 34.7 µM; in test [4], 19.4 µM; in test [5], 29.4 µM; in test [6], 65.1 µM; in test [7], 40.8 µM. The compound also came in with a TGI in test [8] of 56 µM.

Take `O=C(OCC(Cl)(Cl)Cl)O[C@@H]1CCCC1(c1ccccc1)c1ccccc1`: the TGI in test [1], in test [2], in test [3], in test [4], in test [5] and in test [6] was greater than 100 µM throughout. The same compound gave a TGI in test [8] greater than 100 µM.

In the case of `CCOc1cc(NC(C)=O)ccc1C(=O)NN1C(=O)CSC1c1ccccc1` (stereo unspecified), the TGI in test [2], in test [3], in test [4], in test [5], in test [6] and in test [7] was greater than 100 µM each time. In addition, the TGI in test [8] was greater than 100 µM.

Regarding `CN(C)c1cccc(NC2=NCCO2)c1`, the TGI in test [1], in test [2], in test [3], in test [4], in test [5] and in test [6] was greater than 100 µM each time. Also, in test [7], the TGI is greater than 100 µM.

Consider `CCN(CC)c1ccc2cc(C(=O)Nc3ccccn3)c(=N)oc2c1`, for which the TGI in test [1], in test [2], in test [3], in test [4], in test [5] and in test [7] was greater than 100 µM in each case. Further, the TGI in test [8] is greater than 100 µM.

Turning to `CC1C(c2ccc(Cl)cc2)c2cc3c(cc2OC1N1CCOCC1)OCO3` (stereo unspecified), the TGI in test [2], in test [3], in test [4], in test [5] and in test [6] was greater than 100 µM each time.

Turning to `CCOC(=O)C1=COC(C)(CCc2ccccc2)CC1=O` (stereo unspecified), the TGI in test [1], in test [3], in test [4], in test [6], in test [7] and in test [8] was greater than 100 µM each time.

For the compound `Fc1cccc(F)c1C1SCc2nc3ccc(Cl)cc3n21` (stereo unspecified), the TGI in test [1], in test [2], in test [3], in test [4], in test [5] and in test [6] was greater than 100 µM each time. For the same compound, the TGI in test [8] was greater than 100 µM.

For the compound `Cn1c(N/N=C/c2ccccc2)nc(-c2ccc([N+](=O)[O-])cc2)c(C#N)c1=O`, the TGI in test [1], in test [3], in test [4], in test [5], in test [6] and in test [7] was greater than 100 µM each time.

Consider `CC1=NC(=Cc2ccc([N+](=O)[O-])cc2)C(=O)N1n1c(-c2ccccc2)nc2ccccc2c1=O`, for which the TGI in test [2], in test [3], in test [5], in test [6] and in test [8] was greater than 100 µM throughout.

`CC(=O)N(O)c1ccc(-c2nc3ccccc3s2)cc1`: the TGI in test [1], in test [2], in test [4], in test [5], in test [6] and in test [7] was greater than 100 µM throughout.

In the case of `O=C1Nc2ccccc2/C1=c1\[nH]c(=O)/c(=C\c2ccc(OCc3ccccc3)cn2)[nH]c1=O`, the TGI was 44.8 µM in test [1]; greater than 100 µM in test [2]; greater than 100 µM in test [3]; greater than 100 µM in test [4]; greater than 100 µM in test [5]; greater than 100 µM in test [6]. Besides, the TGI in test [7] is 77.9 µM.

Turning to `CC(C)(C)OC(=O)NCCCCC(NC(=O)c1ccccc1)C(N)=O` (stereo unspecified), the TGI in test [1], in test [3], in test [4], in test [5], in test [6] and in test [7] was greater than 100 µM each time. For the same compound, the TGI in test [8] was greater than 100 µM.

Consider `COc1ccc(/C=N/n2cnc3[nH]c(C)c(Cc4ccccc4)c3c2=N)cc1`, for which the TGI in test [1], in test [2], in test [3], in test [4], in test [6] and in test [7] was greater than 100 µM throughout. In test [8], this compound showed a TGI greater than 100 µM.

As for `COc1ccccc1C[C@@H]1OC2(C=CC(=O)C=C2)O[C@H]1Cc1ccccc1OC`, the TGI in test [1] is 19.4 µM; in test [3] it was 13 µM; in test [4], 18.4 µM; in test [5], 13.8 µM; in test [6], 20.6 µM; in test [7], 49.9 µM. The TGI in test [8] is 11.5 µM.

With `COc1cc(C2c3cc4c(cc3OC(N3CCNCC3)C2C)OCO4)cc(OC)c1OC` (stereo unspecified), the TGI in test [1] is greater than 43.8 µM; in test [2], 5.83 µM; in test [3] it was greater than 100 µM; in test [5], 19 µM; in test [6], greater than 34.4 µM; in test [7], 52.1 µM. Further, in test [8], the TGI is 30.2 µM.

In the case of `Cc1ccc(NC(=O)C(=O)CC(=O)c2sc(Nc3c(C)cccc3C)nc2C)cc1C`, the TGI in test [1], in test [2], in test [3], in test [4], in test [5] and in test [6] was greater than 100 µM each time. Besides, the TGI in test [8] was greater than 100 µM.

As to `O=C(CCc1ccccc1)ON1C(=S)C(c2ccccc2)(c2ccccc2)N=C1Sc1ccccc1`, the TGI in test [2] is greater than 100 µM; in test [3], greater than 100 µM; in test [4] it was greater than 100 µM; in test [5], 42.4 µM; in test [6], greater than 100 µM; in test [7], greater than 100 µM. In addition, in test [8], the TGI was greater than 100 µM.

On to `CCOC(=O)C1=C(C)N(c2ccc(OC)cc2)C2(O)C=CC(=O)C3=C(O)c4ccccc4C(=O)C312` (stereo unspecified), for which the TGI in test [1] was found to be 23.5 µM; in test [3] it was 23.4 µM; in test [4], 20.1 µM; in test [5] it was 22.4 µM; in test [6], 24.4 µM; in test [7] it was 27 µM. The compound further yielded a TGI in test [8] of 29 µM.

As for `CC(C)C1N(C)c2ccc(Cl)cc2[C@H]2c3ccccc3CCN12` (stereo partly specified), the TGI in test [1] was greater than 100 µM; in test [3], greater than 100 µM; in test [4], greater than 100 µM; in test [5], 55.7 µM; in test [6], greater than 100 µM; in test [7] it was greater than 100 µM. In addition, in test [8], the TGI was greater than 100 µM.

Take `COc1ccc2c(OCc3nnc4ccc(-c5ccccc5)nn34)ccnc2c1`: the GI50 in test [2], in test [3], in test [4], in test [5], in test [6] and in test [7] was greater than 100 µM in each case. In test [8], the GI50 is greater than 100 µM. Further, the TGI in test [2], in test [3], in test [4], in test [5], in test [6] and in test [7] was greater than 100 µM throughout. This compound also returned a TGI in test [8] greater than 100 µM.

On to `C[C@H]1S[C@H](c2c(Cl)cccc2Cl)N2Cc3ccccc3N=C12`, for which the TGI in test [1] is greater than 100 µM; in test [2], 29.5 µM; in test [3] it was 23.4 µM; in test [5], 32.6 µM; in test [6] it was 37.7 µM; in test [7], 66 µM. In addition, the TGI in test [8] is greater than 100 µM.
